The compounds below were run against T1, human Kv1.3 ion channel (Homo sapiens, UniProt P22001) (assay: Inhibition of Kv1.3 currents, planar patch clamp in Jurkat cells). Conditions: Human Jurkat cells (endogenous hKv1.3), averaged dose response data from 3 or more cells.
T1 construct: Human Jurkat cells (which endogenously express hKv1.3) were used in place of rat L929 cells; endogenous in cells; host or cells: Human Jurkat cells
Assay type: cell-based
Protocol: Potency of compounds to inhibit the human Kv1.3 ion channel were determined as follows:
EC50 values for inhibition of Kv1.3 currents were determined by the method according to Schmitz et al (2005) Molecular Pharmacology 68, 1254-1270 with the following differences: • 1. Human Jurkat cells (which endogenously express hKv1.3) were used in place of rat L929 cells. • 2. All electrophysiology was performed using planar patch clamp (Port-A-Patch, Nanion Technologies Gmbh, Munich) in contrast to conventional patch clamp. • 3. EC50 values shown were determined from averaged dose response data obtained from 3 or more cells.

T1 sequence (P22001 whole entry): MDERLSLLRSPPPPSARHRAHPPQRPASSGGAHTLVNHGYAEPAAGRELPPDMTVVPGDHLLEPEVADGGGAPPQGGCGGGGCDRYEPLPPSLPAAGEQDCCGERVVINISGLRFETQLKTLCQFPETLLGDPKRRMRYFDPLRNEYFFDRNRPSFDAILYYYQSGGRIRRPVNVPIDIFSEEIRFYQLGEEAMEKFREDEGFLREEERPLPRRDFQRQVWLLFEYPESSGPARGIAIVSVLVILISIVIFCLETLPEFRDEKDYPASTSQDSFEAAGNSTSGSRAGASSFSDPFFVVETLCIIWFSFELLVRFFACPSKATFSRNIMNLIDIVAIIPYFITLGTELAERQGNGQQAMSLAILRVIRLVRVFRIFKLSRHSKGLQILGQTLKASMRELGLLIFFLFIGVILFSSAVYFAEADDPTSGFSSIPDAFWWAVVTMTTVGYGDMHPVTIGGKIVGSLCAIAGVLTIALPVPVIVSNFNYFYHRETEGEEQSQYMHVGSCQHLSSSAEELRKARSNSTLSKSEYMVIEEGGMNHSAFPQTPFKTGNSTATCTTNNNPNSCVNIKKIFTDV

Structure (SMILES) | EC50
CC(=O)c1c(OCCNC2CCCC2)c(OCCC(C)c2ccc(F)cc2)c2occc2c1C (stereo not drawn) [Example 45b, 5-Acetyl-7-(3-[4-fluorophenyl]butoxy)-4-methyl-6-(2-Cyclopentylamino-ethoxy)benzofuran] | 43 nM
CC(=O)c1c(O)c(OCCCc2ccc(F)cc2)c2occc2c1C [Example 47a, 5-Acetyl-7-(3-(4-fluorophenyl)propoxy)-6-hydroxy-4-methylbenzofuran] | 531 nM
CC(=O)c1c(OCCN2CCOCC2)c(OCCCc2ccc(F)cc2)c2occc2c1C [Example 47b, 5-Acetyl-7-(3-(4-fluorophenyl)propoxy)-4-methyl-6-(2-morpholinoethoxy)benzofuran] | 74 nM
CC(=O)c1c(OCCNC2CCCC2)c(OCCCc2ccc(F)cc2)c2occc2c1C [Example 48, 1-[6-(2-Cyclopentylamino-ethoxy)-4-methyl-7-(3-(4-fluoro-phenyl)-propoxy)-benzofuran-5-yl]-ethanone] | 47 nM
CC(=O)c1c(O)c(OCCC(C)c2ccccc2)c2occc2c1C (stereo not drawn) [Example 50a, 1-[6-Hydroxy-4-methyl-7-(3-RS-phenylbutoxy)-benzofuran-5-yl]-ethanone] | 423 nM
CC(=O)c1c(OCCN2CCOCC2)c(OCCC(C)c2ccccc2)c2occc2c1C (stereo not drawn) [Example 50b, 1-[4-Methyl-6-(2-morpholin-4-yl-ethoxy)-7-(3-phenyl-butoxy)-benzofuran-5-yl]-ethanone] | 16 nM
CC(=O)c1c(OCCN2CCOCC2)c(OCC[C@@H](C)c2ccccc2)c2occc2c1C [Example 51, 1-[4-Methyl-6-(2-morpholin-4-yl-ethoxy)-7-(3-phenyl-butoxy)-benzofuran-5-yl]-ethanone] | 18 nM
CC(=O)c1c(OCCNC2CCCC2)c(OCCC(C)c2ccccc2)c2occc2c1C (stereo not drawn) [Example 53, 1-[6-(2-Cyclopentylamino-ethoxy)-4-methyl-7-(3-phenyl-butoxy)-benzofuran-5-yl]-ethanone] | 23 nM
CC(=O)c1c(OCCCC#N)c(OCCCc2ccccc2)c2occc2c1C [Example 54a, 5-Acetyl-6-(3-cyanopropoxy)-4-methyl-7-(3-phenylpropoxy)benzofuran] | 160 nM
CC(=O)c1c(OCCCc2nnn[nH]2)c(OCCCc2ccccc2)c2occc2c1C [Example 54b, 5-Acetyl-6-(3-(1H-tetrazol-5-yl)-propoxy)-4-methyl-7-(3-phenylpropoxy)benzofuran] | 1600 nM
CC(=O)c1c(OCCc2nnn[nH]2)c(OCCCc2ccccc2)c2occc2c1C [Example 55, 5-Acetyl-6-(3-(1H-tetrazol-5-yl)-ethoxy)-4-methyl-7-(3-phenylpropoxy)benzofuran] | 6600 nM
CC(=O)c1c(OCCN2CCOCC2)c(OCC(C)(C)Cc2ccccc2)c2occc2c1C [Example 56b, 5-Acetyl-7-(2,2-dimethyl-3-phenylpropoxy)-4-methyl-6-(2-morpholinoethoxy)benzofuran] | 362 nM
CC(=O)c1c(OCCN2CCOCC2)c(OC(C)CCc2ccccc2)c2occc2c1C (stereo not drawn) [Example 57b, 1-[4-Methyl-7-(1-RS-methyl-3-phenyl-propoxy)-6-(2-morpholin-4-yl-ethoxy)-benzofuran-5-yl]-ethanone] | 159 nM
CC(=O)c1c(OCCN2CCOCC2)c(OC[C@H]2C[C@@H]2c2ccccc2)c2occc2c1C [Example 58c, 1-[4-Methyl-6-(2-morpholin-4-yl-ethoxy)-7-(1S,2S-2-phenyl-cyclopropylmethoxy)-benzofuran-5-yl]-ethanone] | 100 nM
CC(=O)c1c(OCCN2CCOCC2)c(OCC#Cc2ccccc2)c2occc2c1C [Example 60c, 1-[4-Methyl-6-(2-morpholin-4-yl-ethoxy)-7-(3-phenyl-prop-2-ynyloxy)-benzofuran-5-yl]-ethanone] | 331 nM
CC(=O)c1c(OCCN2CCOCC2)c(OC/C=C/c2ccccc2)c2occc2c1C [Example 61, 1-[4-Methyl-6-(2-morpholin-4-yl-ethoxy)-7-(E-3-phenyl-allyloxy)-benzofuran-5-yl]-ethanone] | 221 nM
CC(=O)c1c(OCCN2CCOCC2)c(OC[C@H]2O[C@@H]2c2ccccc2)c2occc2c1C [Example 63, 1-[4-Methyl-6-(2-morpholin-4-yl-ethoxy)-7-(2R,3R-3-phenyl-oxiranylmethoxy)-benzofuran-5-yl]-ethanone] | 600 nM
COc1c(C(C)=O)c(O)c(OCCNc2ccccc2)c2occc12 [Example 64c, 1-[6-Hydroxy-4-methoxy-7-(2-phenylamino-ethoxy)-benzofuran-5-yl]-ethanone] | 340 nM
CC(=O)c1c(C)c2c(c(OCCCc3ccccc3)c1OCCN1CCOCC1)OCC2 [Example 65, 5-Acetyl-6-(2-morpholinoethoxy)-4-methyl-7-(3-phenylpropoxy)-2,3-dihydrobenzofuran] | 200 nM
CC(=O)c1c(C)c2c(c(OCCC(C)c3ccc(F)cc3)c1OCCNC1CCCC1)OCC2 (stereo not drawn) [Example 67, 1-{6-(2-Cyclopentylamino-ethoxy)-7-[3-RS-(4-fluorophenyl)-butoxy]-4-methyl-2,3-dihydro-benzofuran-5-yl}-ethanone] | 8 nM
CC(=O)c1c(C)c2c(c(CCCCc3ccccc3)c1OCCN1CCOCC1)OCC2 [Example 68, 1-[4-Methyl-6-(2-morpholin-4-yl-ethoxy)-7-(4-phenyl-butyl)-2,3-dihydro-benzofuran-5-yl]-ethanone] | 20 nM

Reference: US8309545B2, “Benzofuran potassium channel blockers and uses thereof” (Bionomics Limited, priority 2006, dated 2012)
